Source: patent US20110053773A1, “METHODS OF IMPROVING NUTRITIONAL VALUE OF PLANTS” (UNIVERSITY OF TENNESSEE RESEARCH FOUNDATION, priority 2009, published 2011)

How the values were obtained:
kale 'Red Russian' [1] = experiment: Content analysis of kale: protein, amino acids, fiber, fatty acids, minerals (Example 4, Tables 12-14); assay type: in vivo; conditions: 28 DA-A, second-listed rate g ai/ha: chlropyrifos ###, chlorothalonil ###, paclobutrazol 9.7, mepiquat-chloride 37, + NIS 0.3 % v/v
Method in brief: (§1)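 Greenhouse postemergence applications of chlorpyrifos, chlorothalonil, mepiquat-chloride, paclobutrazol, napthalic anhydride or isoxadifen-ethyl. Visual injury (phytotoxicity, chlorosis, stunting) scored 0–100%, 0 = no response, 100 = plant death. Harvest about 4 weeks after treatment; replicates pooled for protein, mineral, amino acid, fiber and fatty acid analysis.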

basil ‘Genovese’ = experiment: Yield, fresh weight of basil after insecticide, fungicide, PGRs and safeners (Example 4, Table 10); assay type: in vivo; conditions: DA-A, check 31.8
Method in brief: (§2)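 Plants received postemergence sprays of one insecticide, one fungicide, two PGRs or two safeners in the greenhouse. About 4 weeks later they were harvested, and replicates were pooled for laboratory content analysis. Injury was rated visually on a 0–100% scale.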

basil 'Genovese' = experiment: Content analysis of basil: protein, minerals (Example 4, Tables 10-11); assay type: in vivo; conditions: 28 DA-A
Method in brief: as §2

kale 'Red Russian' [2] = experiment: Visual injury of kale after insecticide, fungicide, PGRs, safeners (Example 4)
Method in brief: as §1

[3] = rates g ai/ha: chlropyrifos 1120, chlorothalonil 2630, paclobutrazol 3.23, mepiquat-chloride 12.3, Isoxadifen 8, Napthalic anhydride 264, + NIS 0.25 % v/v
[4] = rates g ai/ha: chlroprifos 3370, chlorothalonil 7900, paclobutrazol 9.7, mepiquat-chloride 37, Isoxadifen 16, Napthalic anhydride 527, + NIS 0.25 % v/v
[5] = 7 DA-A, rates g ai/ha: chlropyrifos 1120, chlorothalonil 2630, paclobutrazol 3.23, mepiquat-chloride 12.3, + NIS 0.25 % v/v
[6] = 7 DA-A, rates g ai/ha: chlropyrifos 3370, chlorothalonil 7900, paclobutrazol 9.7, mepiquat-chloride 37, + NIS 0.25 % v/v
[7] = 14 DA-A, rates g ai/ha: chlropyrifos 1120, chlorothalonil 2630, paclobutrazol 3.23, mepiquat-chloride 12.3, + NIS 0.25 % v/v
[8] = 14 DA-A, rates g ai/ha: chlropyrifos 3370, chlorothalonil 7900, paclobutrazol 9.7, mepiquat-chloride 37, + NIS 0.25 % v/v
[9] = 28 DA-A, rates g ai/ha: chlropyrifos 1120, chlorothalonil 2630, paclobutrazol 3.23, mepiquat-chloride 12.3, + NIS 0.25 % v/v
[10] = 28 DA-A, rates g ai/ha: chlropyrifos 3370, chlorothalonil 7900, paclobutrazol 9.7, mepiquat-chloride 37, + NIS 0.25 % v/v

Which results are given for `C[N+]1(C)CCCCC1` [mepiquat-chloride]?
Cysteine, Percent Increase over the Untreated Check (on a % dry matter basis) (kale 'Red Russian' [1]): −6 % check; Glutamic acid, Percent Increase over the Untreated Check (on a % dry matter basis) (kale 'Red Russian' [1]): −2 % check; Glycine, Percent Increase over the Untreated Check (on a % dry matter basis) (kale 'Red Russian' [1]): −7 % check; Iso-leucine, Percent Increase over the Untreated Check (on a % dry matter basis) (kale 'Red Russian' [1]): −3 % check; Leucine, Percent Increase over the Untreated Check (on a % dry matter basis) (kale 'Red Russian' [1]): −4 % check; Lysine, Percent Increase over the Untreated Check (on a % dry matter basis) (kale 'Red Russian' [1]): −1 % check; Methionine, Percent Increase over the Untreated Check (on a % dry matter basis) (kale 'Red Russian' [1]): −4 % check; Proline, Percent Increase over the Untreated Check (on a % dry matter basis) (kale 'Red Russian' [1]): 2 % check; Threonine, Percent Increase over the Untreated Check (on a % dry matter basis) (kale 'Red Russian' [1]): −1 % check; Total Amino acids, Percent Increase over the Untreated Check (on a % dry matter basis) (kale 'Red Russian' [1]): −2 % check; Total Protein, Percent Increase over the Untreated Check (on a % dry matter basis) (kale 'Red Russian' [1]): 0 % check; Valine, Percent Increase over the Untreated Check (on a % dry matter basis) (kale 'Red Russian' [1]): −2 % check; Yield Fresh weight (basil ‘Genovese’; [3]): 36.9 grams; Yield Fresh weight (basil ‘Genovese’; rates g ai/ha: chlropyrifos 3370, chlorothalonil 7900, paclobutrazol 9.7, mepiquat-chloride 37, Isoxadifen 16, Napthalic anhydride 527, + NIS 0.25 % v/v): 35.6 grams; ADF, Percent Increase Over the Untreated Check (on a % dry matter basis) (basil 'Genovese'; [4]): −9 % check; Calcium, Percent Increase Over the Untreated Check (on a % dry matter basis) (basil 'Genovese'; [4]): 2 % check; Copper, Percent Increase Over the Untreated Check (on a % dry matter basis) (basil 'Genovese'; [4]): −8 % check; Iron, Percent Increase Over the Untreated Check (on a % dry matter basis) (basil 'Genovese'; [4]): 6 % check; Magnesium, Percent Increase Over the Untreated Check (on a % dry matter basis) (basil 'Genovese'; [4]): 16 % check; Manganese, Percent Increase Over the Untreated Check (on a % dry matter basis) (basil 'Genovese'; [4]): 61 % check; NDF, Percent Increase Over the Untreated Check (on a % dry matter basis) (basil 'Genovese'; [4]): −11 % check; Phosphorous, Percent Increase Over the Untreated Check (on a % dry matter basis) (basil 'Genovese'; [4]): 26 % check; Potassium, Percent Increase Over the Untreated Check (on a % dry matter basis) (basil 'Genovese'; [4]): −3 % check; Protein, Percent Increase Over the Untreated Check (on a % dry matter basis) (basil 'Genovese'; [4]): 7 % check; Sodium, Percent Increase Over the Untreated Check (on a % dry matter basis) (basil 'Genovese'; [4]): 8 % check; Soluble protein, Percent Increase Over the Untreated Check (on a % dry matter basis) (basil 'Genovese'; [4]): 27 % check; Zinc, Percent Increase Over the Untreated Check (on a % dry matter basis) (basil 'Genovese'; [4]): 53 % check; ADF, Percent Increase Over the Untreated Check (on a % dry matter basis) (basil 'Genovese'; [3]): 7 % check; Calcium, Percent Increase Over the Untreated Check (on a % dry matter basis) (basil 'Genovese'; [3]): 2 % check; Copper, Percent Increase Over the Untreated Check (on a % dry matter basis) (basil 'Genovese'; [3]): 0 % check; Iron, Percent Increase Over the Untreated Check (on a % dry matter basis) (basil 'Genovese'; [3]): 14 % check; Magnesium, Percent Increase Over the Untreated Check (on a % dry matter basis) (basil 'Genovese'; [3]): 0 % check; Manganese, Percent Increase Over the Untreated Check (on a % dry matter basis) (basil 'Genovese'; [3]): 61 % check; NDF, Percent Increase Over the Untreated Check (on a % dry matter basis) (basil 'Genovese'; [3]): −8 % check; Phosphorous, Percent Increase Over the Untreated Check (on a % dry matter basis) (basil 'Genovese'; [3]): 13 % check; Potassium, Percent Increase Over the Untreated Check (on a % dry matter basis) (basil 'Genovese'; [3]): −4 % check; Protein, Percent Increase Over the Untreated Check (on a % dry matter basis) (basil 'Genovese'; [3]): 13 % check; Sodium, Percent Increase Over the Untreated Check (on a % dry matter basis) (basil 'Genovese'; [3]): −8 % check; Soluble protein, Percent Increase Over the Untreated Check (on a % dry matter basis) (basil 'Genovese'; [3]): 89 % check; Zinc, Percent Increase Over the Untreated Check (on a % dry matter basis) (basil 'Genovese'; [3]): 34 % check; Phytotoxicity Chlorosis (kale 'Red Russian' [2]; [5]): 0%; Phytotoxicity General (kale 'Red Russian' [2]; [5]): 9%; Phytotoxicity Stunting (kale 'Red Russian' [2]; [5]): 4%; Phytotoxicity Chlorosis (kale 'Red Russian' [2]; [6]): 0%; Phytotoxicity General (kale 'Red Russian' [2]; [6]): 10%; Phytotoxicity Stunting (kale 'Red Russian' [2]; [6]): 1%; Phytotoxicity Chlorosis (kale 'Red Russian' [2]; [7]): 15%; Phytotoxicity General (kale 'Red Russian' [2]; [7]): 1%; Phytotoxicity Stunting (kale 'Red Russian' [2]; [7]): 16%; Phytotoxicity Chlorosis (kale 'Red Russian' [2]; [8]): 4%; Phytotoxicity General (kale 'Red Russian' [2]; [8]): 0%; Phytotoxicity Stunting (kale 'Red Russian' [2]; [8]): 3%; Phytotoxicity Chlorosis (kale 'Red Russian' [2]; [9]): 6%; Phytotoxicity General (kale 'Red Russian' [2]; [9]): 1%; Phytotoxicity Stunting (kale 'Red Russian' [2]; [9]): 9%; Phytotoxicity Chlorosis (kale 'Red Russian' [2]; [10]): 3%; Phytotoxicity General (kale 'Red Russian' [2]; [10]): 3%; Phytotoxicity Stunting (kale 'Red Russian' [2]; [10]): 10%
